Assay results taken from ChEMBL document CHEMBL2057108 (Bioorg Med Chem Lett, 2012).
pEC50, pKi: −log10 of the molar value.

What was measured:
Homo sapiens = species: Homo sapiens; assay: Selectivity ratio of Ki for human 5HT3A receptor to Ki for human 5HT4C receptor
[1] = target: T1, 5-hydroxytryptamine receptor 4 (Homo sapiens, UniProt Q13639); assay: Agonist activity at human 5HT4C receptor expressed in a cell line expressing receptor at 10 fold physiological-level assessed as cAMP accumulation; assay type: functional
[2] = target: T1, 5-hydroxytryptamine receptor 4; assay: Intrinsic activity at human 5HT4C receptor expressed in a cell line expressing receptor at 10 fold physiological-level assessed as cAMP accumulation relative to 5HT; assay type: functional
Rattus norvegicus = assay: 5-HT4 receptor-mediated esophageal relaxation in anesthetized rat (following i.v. administration) using digital sonomicrometry; assay type: functional; conditions: Sprague-Dawley, iv
[3] = target: T1, 5-hydroxytryptamine receptor 4; assay: 5-HT4C receptor-mediated exchange of GDP for europium labeled GTP (pEC50)
[4] = target: T1, 5-hydroxytryptamine receptor 4; assay: 5-HT4C receptor-mediated exchange of GDP for europium labeled GTP (intrinsic activity)
[5] = target: T1, 5-hydroxytryptamine receptor 4; assay: Agonist activity at human 5HT4C receptor expressed at 100 fold physiological-level in HEK293 cells assessed as cAMP accumulation; assay type: functional, cell-based
[6] = target: T1, 5-hydroxytryptamine receptor 4; assay: Intrinsic activity at human 5HT4C receptor expressed at 100 fold physiological-level in HEK293 cells assessed as cAMP accumulation relative to 5HT; assay type: functional, cell-based
[7] = target: T1, 5-hydroxytryptamine receptor 4; assay: biochemical
Description: Displacement of [3H]GR113808 from human recombinant 5HT4C receptor expressed in HEK293 cells

[8] = Permeability across human Caco2 cells; assay type: ADME, cell-based; conditions: Caco-2, read-out: Kp
[9] = (§1) Half life in rat liver microsomes; assay type: ADME, Microsome; conditions: liver microsomes
hERG (KCNH2) = hERG (KCNH2) (Homo sapiens, UniProt Q12809); assay: Inhibition of human ERG expressed in CHO cells at 3 uM; assay type: cell-based; conditions: CHO cells expressing human ERG
Liver microsomes = assay: as §1; assay type: ADME, Microsome; conditions: microsomes
[10] = AUC (0 to t) in Sprague-Dawley rat at 5 mg/kg, po; assay type: ADME, organism-based; set-up: dose 5 mg/kg, route oral; conditions: plasma
[11] = Oral bioavailability in Sprague-Dawley rat at 5 mg/kg; assay type: ADME, organism-based; conditions: in vivo
[12] = Cmax in Sprague-Dawley rat at 5 mg/kg, po; assay type: ADME, organism-based; set-up: dose 5 mg/kg, route oral; conditions: in vivo
[13] = Half life in Sprague-Dawley rat at 5 mg/kg, po; assay type: ADME, organism-based; set-up: dose 5 mg/kg, route oral; conditions: in vivo

hERG (KCNH2), sequence (Q12809 whole entry): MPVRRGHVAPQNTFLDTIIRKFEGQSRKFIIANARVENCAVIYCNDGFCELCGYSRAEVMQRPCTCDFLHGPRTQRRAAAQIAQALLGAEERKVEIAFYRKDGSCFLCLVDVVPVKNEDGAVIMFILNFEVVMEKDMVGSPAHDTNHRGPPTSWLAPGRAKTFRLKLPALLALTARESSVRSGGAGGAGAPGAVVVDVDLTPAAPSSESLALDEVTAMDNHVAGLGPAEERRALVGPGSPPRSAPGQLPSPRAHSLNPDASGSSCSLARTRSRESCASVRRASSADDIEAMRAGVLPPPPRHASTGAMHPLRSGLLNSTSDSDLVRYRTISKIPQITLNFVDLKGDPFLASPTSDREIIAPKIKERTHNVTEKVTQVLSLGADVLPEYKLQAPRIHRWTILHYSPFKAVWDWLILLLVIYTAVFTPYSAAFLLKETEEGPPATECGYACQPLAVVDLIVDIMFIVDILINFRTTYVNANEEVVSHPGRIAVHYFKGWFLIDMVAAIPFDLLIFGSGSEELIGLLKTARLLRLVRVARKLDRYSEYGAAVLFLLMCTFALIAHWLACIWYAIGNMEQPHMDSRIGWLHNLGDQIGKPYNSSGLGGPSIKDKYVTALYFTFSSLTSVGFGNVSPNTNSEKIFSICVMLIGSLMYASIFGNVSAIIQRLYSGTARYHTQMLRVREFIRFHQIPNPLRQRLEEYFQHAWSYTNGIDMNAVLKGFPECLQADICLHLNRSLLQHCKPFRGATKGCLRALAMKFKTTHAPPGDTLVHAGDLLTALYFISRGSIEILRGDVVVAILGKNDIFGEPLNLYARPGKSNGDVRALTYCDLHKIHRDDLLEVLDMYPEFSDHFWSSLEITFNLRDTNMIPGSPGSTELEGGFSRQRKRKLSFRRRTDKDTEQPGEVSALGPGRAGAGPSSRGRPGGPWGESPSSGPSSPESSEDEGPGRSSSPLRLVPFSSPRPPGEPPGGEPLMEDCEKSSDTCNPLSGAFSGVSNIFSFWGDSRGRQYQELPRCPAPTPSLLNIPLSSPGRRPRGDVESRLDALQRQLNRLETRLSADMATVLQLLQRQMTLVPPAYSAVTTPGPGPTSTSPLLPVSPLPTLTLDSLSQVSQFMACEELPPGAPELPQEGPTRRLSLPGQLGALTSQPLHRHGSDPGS
T1 sequence (Q13639 whole entry): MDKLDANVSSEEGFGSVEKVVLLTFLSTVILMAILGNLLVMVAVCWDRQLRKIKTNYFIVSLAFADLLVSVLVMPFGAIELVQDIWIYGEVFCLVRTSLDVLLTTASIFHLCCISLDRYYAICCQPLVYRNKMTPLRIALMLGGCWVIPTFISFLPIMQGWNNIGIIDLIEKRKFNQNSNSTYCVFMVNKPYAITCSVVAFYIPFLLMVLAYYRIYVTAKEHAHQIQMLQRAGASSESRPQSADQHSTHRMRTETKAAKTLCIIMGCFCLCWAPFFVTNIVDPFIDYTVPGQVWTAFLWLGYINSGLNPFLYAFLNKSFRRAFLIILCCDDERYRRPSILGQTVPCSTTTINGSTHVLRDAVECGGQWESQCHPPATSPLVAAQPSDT

SMILES | Ratio Ki (Homo sapiens) | pEC50 [5] | Intrinsic activity [6] [%] | pKi [7] | Papp [8] [×10⁻⁶ cm/s] | half-life [9] [h] | inhibition at 3 µM (hERG (KCNH2)) [%] | also measured
CC(C)n1c(=O)c(C(=O)N[C@H]2C[C@H]3CC[C@@H](C2)N3C[C@@H](O)CN2CCN(S(C)(=O)=O)CC2)cc2ccccc21 | 7400 | – | – | – | – | – | – | pEC50 [1]: 8.70; Intrinsic activity [2]: > 100%; ED50 (Rattus norvegicus): 0.142 mg/kg; pEC50 [3]: 8.40; Intrinsic activity [4]: > 100%
CC(C)n1nc(C(=O)N[C@H]2C[C@H]3CC[C@@H](C2)N3CCCCCCN2CCCCC2)c2ccccc21 | 12 | 8.60 | 102 | 9.00 | – | – | – | –
CC(C)n1nc(C(=O)N[C@H]2C[C@H]3CC[C@@H](C2)N3C[C@H](O)CN2CCN(S(C)(=O)=O)CC2)c2ccccc21 | 240 | 9.10 | 94 | 8.10 | 18 | > 1.5 | 7 | –
COc1cc(N)c(Cl)cc1C(=O)N[C@H]1CCN(CCCOc2ccc(F)cc2)C[C@H]1OC (relative stereo) [REL-CISAPRIDE] | – | – | 117 | – | – | – | – | t1/2 (Liver microsomes): 0.783 h
CC(C)n1nc(C(=O)N[C@H]2C[C@H]3CC[C@@H](C2)N3)c2ccccc21 | < 1 | – | – | – | – | – | – | –
CC(C)n1nc(C(=O)N[C@H]2C[C@H]3CC[C@@H](C2)N3CC(O)CN2CCC(CNS(C)(=O)=O)CC2)c2ccccc21 (stereo partly drawn) | 19000 | 9.20 | 93 | 8.60 | 1 | > 1.5 | – | –
CC(C)n1nc(C(=O)N[C@H]2C[C@H]3CC[C@@H](C2)N3CCCCCCN2CCC(CNS(C)(=O)=O)CC2)c2ccccc21 | 4.3 | 8.80 | 91 | 8.80 | – | – | – | –
CC(C)N(C)CC(O)CN1[C@@H]2CC[C@H]1C[C@@H](NC(=O)c1nn(C(C)C)c3ccccc13)C2 (stereo partly drawn) | 6300 | 8.30 | 78 | 8.40 | 26 | > 1.5 | 29 | –
CC(C)n1nc(C(=O)N[C@H]2C[C@H]3CC[C@@H](C2)N3C[C@@H](O)CN2CCN(S(C)(=O)=O)CC2)c2ccccc21 | 23000 | 9.40 | 86 | 8.60 | 19 | > 1.5 | 7 | AUC(0-t) [10]: 240 ng·h/mL; bioavailability [11]: 36%; Cmax [12]: 35 ng/mL; half-life [13]: 7.4 h
